Read-outs that look alike come from different tables or passages of the source. No end group written: not given here.
How the values were obtained:
[1] = single substitution of Ile for Glu at position 4, versus unmodified subtilin; cited from earlier work
Streptococcus pyogenes = assay: Deferred antagonism assay on trypticase soy-yeast agar plates; assay type: cell-based; parameters: key: S, sensitive (zone radius >2 mm); SS, zone radius >S; conditions: zone of inhibition
Clostridium sporogenes = assay: as above; assay type: cell-based; conditions: Clostridium sporogenes (ATCC 19606); zone of inhibition
Staphylococcus aureus = assay: as above; assay type: cell-based; parameters: key: S, sensitive (zone radius >2 mm); SS, zone radius >S; conditions: zone of inhibition
Streptococcus mutans 130 = assay: as above; assay type: cell-based; conditions: zone of inhibition
Streptococcus salivarius = assay: as above; assay type: cell-based; conditions: zone of inhibition
Streptococcus faecium = assay: as above; assay type: cell-based; conditions: zone of inhibition
[2] = tested on: Streptococcus faecalis 78.4; assay: as above; assay type: cell-based; conditions: zone of inhibition
trypsin = assay: Sensitivity to trypsin (residual mutacin activity); assay type: physicochemical
Method: Sensitivity to trypsin (Sigma Chemical Co., St. Louis, Mo.) was determined according to the manufacturer's recommendation by incubating purified mutacin (4096 BU) in 50 ml of 50 mM sodium phosphate buffer pH 7.5 with trypsin (2 mg) at room temperature. Samples were analyzed for residual mutacin activity at various time intervals.
(§1) Mutacin was sensitive to trypsin. After 10 min incubation with the protease, no activity in sample was detected. Control samples without trypsin retained their full activity under identical conditions. Mutacin was thermostable as analyzed by residual activity after incubation at 80° C. for 30 min, and by incubating at 100° C. in loading buffer.

[3] = assay type: physicochemical
Excerpt: (§2) The mutacins of the present invention have an apparent Mr of about 2,500 Da as determined by high performance liquid chromatography using a size-exclusion column. This is a useful defining parameter which may be determined using the routinely employed technique of column chromatography. However, the highly purified mutacins may be found to have a slightly different exact molecular weights, depending on the technique used, such as the molecular weight of 3,244.64±1.15 Da determined by ion spray mass spectroscopy for the T8-derived mutacin as determined from the m/z values, wherein z is equal to 2, 3, or 4 for m / z values 1623, 1083 and 812, respectively (see FIG. 4). Furthermore, the mutacin is thermostable, as measured by, e.g., incubating an agar plug at 100° C. for 30 minutes and quantitating bacteriocidal activity. The mutacin is stable over a pH range of 4-10, as measured by incubating the purified mutacin for 24 hours in appropriate 0.1 M buffers, e.g., such as acetate, phosphate or glycine buffers, at room temperature, and tested for bacteriocidal activity.
as §1

Streptococcus sanguis = assay: Deferred antagonism assay on trypticase soy-yeast agar plates; assay type: cell-based; conditions: zone of inhibition
Method: (§3) Mutacin production was detected by deferred antagonism technique on trypticase soy-yeast agar (TSAY) using S. sobrinus OMZ176, S. mutans 10449, or S. sanguis Ny101 as sensitive indicators (Parrot, et al., 1990). Mutacin present in liquid culture was quantified by spotting […] of 2-fold dilutions of mutacin in phosphate buffered saline (PBS) onto the surface of TSAY overlaid with indicator strain as described. Spots were allowed to dry for 1 h, then the plates were incubated anaerobically for 24 h. The lowest titer yielding a zone of inhibition having clear edges was defined as one bacteriocin unit (BU).
(§4) Biological activity may also be measured by overlaying thin layer chromatography or SDS-PAGE gels with an indicator strain.

Streptococcus mutans WT = assay: as above; assay type: cell-based; conditions: zone of inhibition
Method: as §3, §4

Streptococcus mitis = assay: as above; assay type: cell-based; conditions: zone of inhibition
[4] = Isoelectric point (electrophoretic mobility / isoelectric focusing); assay type: physicochemical; conditions: based on electrophoretic mobility
Bacillus subtilis 1687 = assay: Deferred antagonism assay on trypticase soy-yeast agar plates; assay type: cell-based; conditions: zone of inhibition
[5] = tested on: Streptococcus mutans GS-5; assay: as above; assay type: cell-based; conditions: zone of inhibition
Streptococcus pneumoniae = assay: as above; assay type: cell-based; parameters: key: S, sensitive (zone radius >2 mm); SS, zone radius >S; conditions: zone of inhibition
Mycobacterium phlei = assay: as above; assay type: cell-based; conditions: zone of inhibition
Actinomyces viscosus = assay: as above; assay type: cell-based; conditions: zone of inhibition
[6] = assay type: physicochemical; remark: listed apart in the source
Excerpt: as §2
Purified mutacin was mixed with different 0.1 M buffers in range pH 4-11 (sodium acetate pH 4-6; sodium phosphate pH 7-8; glycine-NaOH pH 8-11). After one or 24 h incubation at room temperature, residual mutacin activity was assayed using the spot test described above. […]

Streptococcus mutans 159 = assay: Deferred antagonism assay on trypticase soy-yeast agar plates; assay type: cell-based; conditions: zone of inhibition
Streptococcus lactis = assay: as above; assay type: cell-based; conditions: zone of inhibition
Streptococcus rattus = assay: as above; assay type: cell-based; conditions: zone of inhibition
[7] = tested on: S. sobrinus OMZ176, S. mutans 10449, or S. sanguis Ny101 as sensitive indicators; assay: Mutacin assay: spot test of 2-fold dilutions, bacteriocin units (BU); assay type: cell-based; conditions: bacteriocin units per mg total protein, at stages of purification
Excerpt: The isolated antimicrobial mutacin polypeptides of the invention are generally characterized as having substantial bacteriocidal activity. As used herein the term “substantial bacteriocidal activity” describes significant mutacin-directed bacterial killing, as measured by any one of a variety of assays. Bacteriocidal activity may be advantageously examined and quantified by the deferred antagonism technique on trypticase soy-yeast agar (TSAY) using S. sobrinus OMZ176 or S. sanguis Ny101 as sensitive indicators (Parrot, et al., 1990). A unit of bacteriocidal activity (BU), present in liquid culture, is described as the lowest titer yielding a clear lytic-like zone of inhibition having clear edges and greater than 10 mm in diameter. Chikindas et al. describes arbitrary units (AU) of activity, which are essentially identical to bacteriocidal activity units. […]
as §3, with “Spots were allowed to dry for 1 h, then the plates were incubated anaerobically for 24 h. The lowest titer yielding a zone of inhibition having clear edges was defined as one bacteriocin unit (BU).” left out

Q: With `C=C1NC(=O)CC[C@@H](C(=O)O)NC(=O)[C@H](NC(=O)[C@H](CCCCN)NC(=O)[C@@H](N)Cc2c[nH]c3ccccc23)CSC[C@@H](C(=O)N[C@@H]2C(=O)N3CCC[C@H]3C(=O)NCC(=O)N[C@H](C(=O)N[C@H](C(=O)N[C@@H]3C(=O)NCC(=O)N[C@@H](C)C(=O)N[C@@H](CC(C)C)C(=O)N[C@@H](CCC(N)=O)C(=O)N/C(=C/C)C(=O)N[C@H](C(=O)N[C@@H](Cc4ccccc4)C(=O)N[C@@H](CC(C)C)C(=O)N[C@@H](CCC(N)=O)C(=O)N[C@@H]4C(=O)N[C@@H](CC(C)C)C(=O)N[C@H]5C(=O)N[C@@H](CSC4C)C(=O)NC(=O)[C@H](CC(N)=O)N[C@H](C(=O)N[C@@H](CCCCN)C(=O)N[C@H](C(=O)NC(=C)C(=O)N[C@@H](CCCCN)C(=O)O)[C@@H](C)CC)CSC5C)CSC3C)C(C)C)CSC2C)N[C@@H](CC(C)C)C(=O)NC1=O` (stereo partly shown) [subtilin] as the compound, how does the “increase of the biological half-life” value [1] read?
A: 57 fold

Q: Which Sensitivity (Streptococcus pyogenes) does the source give for “Mutacin: lanthionine-containing polypeptide antibiotic (lantibiotic) purified from Streptococcus mutans T8 or UA96; N-terminus Asn Arg Trp Trp Gln Gly Val Val (NRWWQGVVPTVSYECRMNSWQHVFTCC; cysteine pairing not given here; also: lanthionine-containing lantibiotic, lanthionines not placed; UniProt O54329 27-53, looked up)” here?
A: SS

Q: And the Sensitivity (Clostridium sporogenes)?
A: S (S, sensitive (zone radius >2 mm))

Q: What about the Sensitivity (Staphylococcus aureus) of the same compound?
A: SS

Q: And the Sensitivity (Streptococcus mutans 130)?
A: S (S, sensitive (zone radius >2 mm))

Q: And the Sensitivity (Streptococcus salivarius)?
A: S (S, sensitive (zone radius >2 mm))

Q: And the Sensitivity (Streptococcus faecium)?
A: S (S, sensitive (zone radius >2 mm))

Q: What about the Sensitivity [2] of the same compound?
A: S (S, sensitive (zone radius >2 mm))

Q: What about the “Trypsin (sensitivity)” value (trypsin) of the same compound?
A: sensitive

Q: And the “residual mutacin activity after incubation with trypsin” value (trypsin; 10 min, 4096 BU mutacin, trypsin 2 mg, 50 mM sodium phosphate pH 7.5, room temperature)?
A: no activity

Q: And the “Temperature (thermostable)” value [3]?
A: thermostable > 100 °C

Q: And the “thermostability, residual activity after incubation” value [3]?
A: thermostable

Q: And the “Temperature (thermostable)” value ([3]; listed as mutacin)?
A: up to 100 °C

Q: And the Sensitivity (Streptococcus sanguis)?
A: S (S, sensitive (zone radius >2 mm))

Q: What about the Sensitivity (Streptococcus mutans WT) of the same compound?
A: S (S, sensitive (zone radius >2 mm))

Q: What about the Sensitivity (Streptococcus mitis) of the same compound?
A: S (S, sensitive (zone radius >2 mm))

Q: What about the “pI (isoelectric point)” value [4] of the same compound?
A: ≧8.4 (based on electrophoretic

Q: What about the Sensitivity (Bacillus subtilis 1687) of the same compound?
A: S (S, sensitive (zone radius >2 mm))

Q: What about the Sensitivity [5] of the same compound?
A: S (S, sensitive (zone radius >2 mm))

Q: What about the Sensitivity (Streptococcus pneumoniae) of the same compound?
A: SS

Q: What about the Sensitivity (Mycobacterium phlei) of the same compound?
A: S (S, sensitive (zone radius >2 mm))

Q: And the Sensitivity (Actinomyces viscosus)?
A: S (S, sensitive (zone radius >2 mm))

Q: What about the “pH (stable range)” value ([6]; listed as mutacin) of the same compound?
A: 4-10

Q: What about the “residual activity after incubation at pH 11” value ([6]; pH 11, 0.1 M glycine-NaOH, one or 24 h at room temperature, spot test) of the same compound?
A: about 50%

Q: What about the Sensitivity (Streptococcus mutans 159) of the same compound?
A: S (S, sensitive (zone radius >2 mm))

Q: And the Sensitivity (Streptococcus lactis)?
A: S (S, sensitive (zone radius >2 mm))

Q: And the Sensitivity (Streptococcus rattus)?
A: S (S, sensitive (zone radius >2 mm))

Q: For “Water precipitate from 8M urea: final preparation of mutacin, solubilized in 8 M urea and precipitated with water; over 90% pure (NRWWQGVVPTVSYECRMNSWQHVFTCC; cysteine pairing not given here; also: lanthionine-containing lantibiotic, lanthionines not placed; UniProt O54329 27-53, looked up)”, which Spec. activity [7] is on record?
A: 150,187 BU/mg
